Experimental data reported in patent US11235023B2, “Beta-hairpin peptidomimetic with elastase inhibitory activity and aerosol dosage forms thereof” (POLYPHOR AG, priority 2016, dated 2022).
Non-standard residues stand in square brackets, D forms with d. Residues, ends and D or L forms follow the SMILES beside them. Gly(octyl) = CCCCCCCC[C@H](N)C(=O)O

Experiment: Phase-Ib study in CF patients, sputum concentrations (LC-MS/MS)
Assay type: in vivo, human
Experimental: Concentrations of active compound in sputum were calculated and Cmax and AUC0-tlast were determined.
Spontaneous sputum samples for PK assessments were collected during the following time intervals/periods:
On Day −1 as soon as possible after the subject's arrival at the study site (blank PK), on Day 1 in the period of time between 1 h and 3 h after start of inhalation, and in the morning of Day 2, at approx. 24 h after start of inhalation. Moreover, any spontaneous sputum expectoration between 0-1 h after start of inhalation was collected.
Spontaneous sputum samples were collected in polystyrene Petri dishes and put on ice immediately. All processing steps had to be performed with cold reagents and on ice whenever possible. Plugs were separated from saliva, but the latter was not discarded. If a sputum sample was taken for both PK and neutrophil elastase activity in sputum analysis, the plug was split in 2 approximately equal parts. One part was processed for PK analysis the other one for evaluation of neutrophil elastase activity in sputum.
For PK processing, the resulting plug was split in approximately 2 equal parts. […] The weight of the sputum samples (SP1+SP3) was determined and all samples were immediately put on dry ice for freezing. […]
The pharmacokinetic parameters mentioned above were calculated based on actual blood and sputum sampling times using non-compartmental procedures.

**Q.** For `CCCCCCCC[C@@H]1NC(=O)[C@@H]2CCCN2C(=O)[C@H]2CCCN2C(=O)[C@H](Cc2ccc(O)cc2)NC(=O)[C@H](CCCCN)NC(=O)[C@H](CCC(N)=O)NC(=O)[C@@H]2CCCN2C(=O)[C@@H]2CCCN2C(=O)[C@H]([C@@H](C)CC)NC(=O)[C@H](CO)NC(=O)[C@H](C)NC(=O)[C@H]([C@@H](C)O)NC(=O)[C@H](CCC(=O)O)NC1=O` [active compound, cyclo(-OctG-Glu-Thr-Ala-Ser-Ile-Pro-Pro-Gln-Lys-Tyr-^DPro-Pro-)] (cyclo([Gly(octyl)]ETASIPPQKY[dP]P)), which “Detection in sputum at 24 h after inhalation” value (all dose groups) is on record?
**A.** still detected

**Q.** And the “Concentration in sputum relative to plasma” value (comparison of FIG. 4 and FIG. 3)?
**A.** approximately 10^3 fold
